Measurements published in publication PMC4864809, “C‐type natriuretic peptide in combination with sildenafil attenuates proliferation of rhabdomyosarcoma cells” (Cancer Medicine, 2016).

Assays:
[1] = system: Raf/MEK/ERK signaling in RD‐GC‐B cells; assay: Western blot of Raf/MEK/ERK phosphorylation, RD‐GC‐B; type: cell-based, human; conditions: for ERK phosphorylation: CNP 1 μmol/L and/or sildenafil 100 μmol/L, 1–8 h
Description: (§1) A total of 1 × 10^5 cells per well were plated in 12‐well plastic plates in complete media. Cells were serum‐starved with RPMI‐1640 medium containing 1% serum for 24 h, and then treated with CNP (1 μmol/L) and/or sildenafil (100 μmol/L) for indicated times. Cells were lysed with NP‐40 buffer (0.5% NP‐40, 10 mmol/L Tris [pH 7.6], 0.15 mol/L NaCl, 1.5 mmol/L […]) containing phosphatase inhibitor cocktail (Nacalai Tesque). Samples were electrophoresed on 4–15% gradient gels (Bio‐Rad, Hercules, CA, USA) and transferred onto polyvinylidene difluoride transfer membranes (Millipore Bedford, MA). Antibody binding was detected with an enhanced chemiluminescence detection system (Amersham Pharmacia Biotech, Piscataway, NJ).

[2] = system: RD‐GC‐B and RMS‐YM‐GC‐B cells; assay: Morphological appearance of cell death during proliferation assay; type: cell-based; conditions: during 96 h; CNP 1 μmol/L and/or sildenafil 100 μmol/L
Description: (§2) A total of 2000 cells per well were seeded into 96‐well plates in 100 μL of culture medium. After 24 h, the wells were washed twice with 1% serum‐free RPMI‐1640 medium and subsequently incubated in this medium. Twenty‐four hours after serum deprivation, CNP (1 μmol/L) and/or sildenafil (100 μmol/L) were added, and the cells were incubated for 0–4 days. Cell proliferation was determined in sextuplicate using the Cell Counting Kit‐8 (Nacalai Tesque, Kyoto, Japan).

[3] = system: Notch, Wnt, Hedgehog, and PI3K/AKT/mTOR signaling pathways in RD‐GC‐B cells; assay: Western blot of HES‐1, β‐catenin, GLI1 and phosphorylated Akt, RD‐GC‐B; type: cell-based, human; conditions: CNP 1 µM, sildenafil 100 µM, 4 hours
Description: as §1

[4] = system: RD‐GC‐B xenograft tumors; assay: Xenograft efficacy study; type: in vivo; conditions: for tumor growth (tumor volume): CNP 2.5 μg/kg/min continuous s.c. infusion, versus vehicle; for tumor growth (tumor volume) / Ki67 labeling index: n = 7–8; for Ki67 labeling index: RD‐GC‐B tumors, immunohistochemistry, relative to the control group; for Phosphorylated ERK levels in xenograft tumors: pERK1/2 versus total ERK1/2, western blot densitometry, after 4 weeks of treatment
Description: All animal experiments were performed according to a protocol approved by the Animal Care Ethics Committee of the National Cerebral and Cardiovascular Center Research Institute. Five‐week‐old male BALB/c nu/nu mice and 5‐week‐old male nonobese diabetic/severe combined immunodeficiency (NOD)⁄severe combined immunodeficiency (SCID) mice were purchased from Japan SLC (Shizuoka, Japan) and Oriental Yeast (Tokyo, Japan), respectively.
RD‐GC‐B cells (1–3 × 10^7 cells) were subcutaneously implanted into the chest and abdominal area of NOD/SCID mice. When the subcutaneous tumors reached a diameter of 10–12 mm, they were resected, divided into 5‐mm pieces, and reimplanted into the chest area of BALB/c nu/nu mice. Ten days after tumor implantation, administration of CNP and/or sildenafil was initiated. CNP was continuously infused using an osmotic mini‐pump (Alzet Model 1003D; Duret Corporation, Cupertino, CA), as previously reported 14. CNP was subcutaneously administered at a rate of 2.5 μg/kg/min, and treatment continued for 4 weeks. Sildenafil was intraperitoneally administered at a dose of 20 mg/kg every other day for 4 weeks. Tumor volume was calculated by the formula: V (mm^3) = 0.5 × a × b ^2, where a is the longest tumor axis and b is the shortest tumor axis.
Immunohitochemical staining was performed by the avidin‐biotin‐peroxidase complex (ABC) method using the Vectastain Elite ABC kit (Vector, Burlingame, CA) as described previously 14. Because the anti‐Ki67 antibody was mouse monoclonal antibody, a mouse on mouse immunodetection kit (Vector) was used. Images of immunohistochemical staining were captured using a FSX100 Bio Imaging Navigator microscope (Olympus, Tokyo, Japan). Ki67‐positive and ‐negative cells were counted using the CellSens Dimension software (Olympus). Ten randomly selected fields per section and 7–8 sections per animal were analyzed at 20 × magnification.

[5] = system: Raf/MEK/ERK signaling in RMS‐YM‐GC‐B cells; assay: Western blot of Raf/MEK/ERK phosphorylation, RMS‐YM‐GC‐B; type: cell-based, human; conditions: for ERK phosphorylation: CNP 1 μmol/L and/or sildenafil 100 μmol/L, 1–8 h
Description: as §1

[6] = system: RD‐GC‐B cells; assay: Caspase‐3 activity (Nuc‐View 488 Caspase‐3 assay kit); type: cell-based, human; conditions: same conditions as proliferation assay, Nuc‐View 488 substrate, data not shown
[7] = Plasma CNP measurements (CNP RIA kit); type: in vivo, C57BL/6 mice; conditions: continuous s.c. infusion 2.5 μg/kg/min by osmotic mini‐pump, blood 3 days after implantation, n = 5 versus untreated n = 10
Description: Osmotic mini‐pumps containing CNP were implanted subcutaneously in 6‐week‐old male C57BL/6 mice purchased from Japan SLC. CNP was administered at a rate of 2.5 μg/kg/min, and blood samples from these treated mice and untreated mice were withdrawn 3 days after the implantation. CNP content was determined using a CNP RIA kit (Phoenix Pharmaceuticals, Belmont, CA).

[8] = system: ERK phosphorylation in parental RD cells; assay: Western blot of ERK phosphorylation, parental RD; type: cell-based, human; conditions: data not shown
Description: as §1

[9] = system: parental RD cells; assay: Cell proliferation assay, parental RD; type: cell-based, human; conditions: data not shown
Description: as §2

[10] = system: parental RMS‐YM cells; assay: Cell proliferation assay, parental RMS‐YM; type: cell-based, human; conditions: data not shown
Description: as §2

[11] = molecular target: T1, GC‐B in RMS‐YM‐GC‐B cells (Homo sapiens, UniProt P20594); assay: Measurement of intracellular cGMP (RIA) in RMS‐YM‐GC‐B cells; type: cell-based; conditions: RMS‐YM‐GC‐B cells stably expressing GC‐B
T1 construct: host or cells: RD and RMS‐YM cells, retrovirally infected and puromycin-selected (RD‐GC‐B, RMS‐YM‐GC‐B)
T1 sequence (P20594 23-1047): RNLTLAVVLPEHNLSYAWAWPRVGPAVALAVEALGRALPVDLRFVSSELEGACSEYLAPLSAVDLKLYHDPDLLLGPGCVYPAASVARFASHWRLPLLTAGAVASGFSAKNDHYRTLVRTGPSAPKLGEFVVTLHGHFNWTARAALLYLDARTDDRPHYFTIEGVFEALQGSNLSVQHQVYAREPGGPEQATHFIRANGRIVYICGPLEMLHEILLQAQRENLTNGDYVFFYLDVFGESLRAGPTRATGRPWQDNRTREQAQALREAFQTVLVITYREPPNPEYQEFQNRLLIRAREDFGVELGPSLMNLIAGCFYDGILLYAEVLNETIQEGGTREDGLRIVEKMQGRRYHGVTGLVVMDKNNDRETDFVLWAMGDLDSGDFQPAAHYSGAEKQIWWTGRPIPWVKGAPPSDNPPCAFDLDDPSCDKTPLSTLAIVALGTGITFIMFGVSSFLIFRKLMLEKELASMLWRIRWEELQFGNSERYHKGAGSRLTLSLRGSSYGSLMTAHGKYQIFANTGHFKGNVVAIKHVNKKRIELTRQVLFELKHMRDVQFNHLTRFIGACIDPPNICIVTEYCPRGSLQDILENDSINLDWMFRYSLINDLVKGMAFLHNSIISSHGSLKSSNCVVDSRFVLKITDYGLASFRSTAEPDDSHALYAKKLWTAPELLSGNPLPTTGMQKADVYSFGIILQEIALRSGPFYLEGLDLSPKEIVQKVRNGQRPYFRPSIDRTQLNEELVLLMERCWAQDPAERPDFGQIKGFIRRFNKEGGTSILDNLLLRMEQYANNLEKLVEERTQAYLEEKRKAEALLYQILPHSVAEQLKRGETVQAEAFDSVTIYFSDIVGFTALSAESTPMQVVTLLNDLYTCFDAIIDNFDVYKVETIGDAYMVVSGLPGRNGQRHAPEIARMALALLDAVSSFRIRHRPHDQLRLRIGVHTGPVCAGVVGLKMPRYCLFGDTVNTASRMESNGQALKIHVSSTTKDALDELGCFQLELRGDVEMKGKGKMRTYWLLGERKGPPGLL
Source text: (§3) The plasmid used for preparing retrovirus vector expressing GC‐B‐FLAG (pCX4 puro GC‐B‐FLAG) was constructed by introducing the GC‐B‐FLAG fragment, amplified by polymerase chain reaction (PCR) from human GC‐B obtained from Promega (Madison, WI), into the NotI site of pCX4 puro. The vector was transfected into BOSC cells with pE‐eco and pGp (TAKARA BIO, Kyoto, Japan) using FuGENE6 (Promega) to produce ecotropic retrovirus. After transfection, culture supernatants were collected, and filtered. Retroviral infection of RD and RMS‐YM cells was performed using the retrovirus and Ecotropic Receptor Booster (TAKARA BIO). After infection, cells were selected with puromycin. These resultant cell lines are referred to as RD‐GC‐B or RMS‐YM‐GC‐B.
(§4) Rhabdomyosarcoma cells were seeded onto 24‐well plastic plates and incubated for 24 h. After the cells were confluent as a monolayer, they were washed twice with 500 μL of serum‐free RPMI‐1640 and incubated in serum‐free medium for 24 h. CNP was dissolved in 5 mmol/L isobutylmethylxanthine (IBMX) at final concentrations of 1 nmol/L–10 μmol/L. Various concentrations of CNP were added to the medium, and the monolayer was incubated at 37°C for an additional 15 min. […] The cGMP content of the dried extract was quantitated using a radioimmunoassay (RIA) kit (Yamasa Shoyu, Tokyo, Japan).

[12] = molecular target: T2, GC‐B receptors in RMS‐YM cells (Homo sapiens, UniProt P20594); assay: Measurement of intracellular cGMP (RIA) in RMS‐YM cells; type: cell-based; conditions: 15 min
T2 construct: host or cells: RMS‐YM cells
T2 sequence (P20594 23-1047): T1 sequence (P20594 23-1047)
Description: (§5) Rhabdomyosarcoma cells were seeded onto 24‐well plastic plates and incubated for 24 h. After the cells were confluent as a monolayer, they were washed twice with 500 μL of serum‐free RPMI‐1640 and incubated in serum‐free medium for 24 h. CNP was dissolved in 5 mmol/L isobutylmethylxanthine (IBMX) at final concentrations of 1 nmol/L–10 μmol/L. Various concentrations of CNP were added to the medium, and the monolayer was incubated at 37°C for an additional 15 min. The medium was rapidly removed by aspiration, and 400 μL of 70% ethanol containing 100 μmol/L hydrochloric acid (HCl) was added to lyse the cells. The cGMP content of the dried extract was quantitated using a radioimmunoassay (RIA) kit (Yamasa Shoyu, Tokyo, Japan).

[13] = molecular target: T3, GC‐B receptors in RD cells (Homo sapiens, UniProt P20594); assay: Measurement of intracellular cGMP (RIA) in RD cells; type: cell-based; conditions: 15 min
T3 construct: host or cells: RD cells
T3 sequence (P20594 23-1047): T1 sequence (P20594 23-1047)
Description: as §5

[14] = system: RD‐GC‐B cells; assay: Cell proliferation assay (Cell Counting Kit‐8 / WST‐8), RD‐GC‐B; type: cell-based, human; conditions: CNP 1 μmol/L, 96 h, 1% serum, versus solvent control, n = 6, three independent experiments
Description: as §2

[15] = system: RMS‐YM‐GC‐B cells; assay: Cell proliferation assay (Cell Counting Kit‐8 / WST‐8), RMS‐YM‐GC‐B; type: cell-based, human; conditions: CNP 1 μmol/L, 96 h, 1% serum, versus solvent control, n = 6, three independent experiments
Description: as §2

[16] = system: ERK phosphorylation in parental RMS‐YM cells; assay: Western blot of ERK phosphorylation, parental RMS‐YM; type: cell-based, human; conditions: data not shown
Description: as §1

[17] = molecular target: T4, GC‐B in RD‐GC‐B cells (Homo sapiens, UniProt P20594); assay: Measurement of intracellular cGMP (RIA) in RD‐GC‐B cells; type: cell-based; conditions: RD‐GC‐B cells stably expressing GC‐B
T4 construct: host or cells: RD and RMS‐YM cells, retrovirally infected and puromycin-selected (RD‐GC‐B, RMS‐YM‐GC‐B)
T4 sequence (P20594 23-1047): T1 sequence (P20594 23-1047)
Source text: as §3, §4

[18] = subcutaneous infusion of CNP at 2.5 μg/kg/min; cited from earlier work
Source text: There are some limitations in this study. First, RMS cells stably expressing GC‐B expressed higher levels of GC‐B than clinical samples. However, given that the recurrent sample expressed a very high level of GC‐B, the findings made using RMS cells stably expressing GC‐B are still quite valuable.

[19] = sildenafil 20 mg/kg i.p. every other day, 4 weeks
[20] = CNP 1 nmol/L–10 μmol/L with IBMX, 37°C, serum-free, RIA, average of four wells
[21] = CNP 1 μmol/L, sildenafil 100 μmol/L

CCCc1nn(C)c2c(=O)[nH]c(-c3cc(S(=O)(=O)N4CCN(C)CC4)ccc3OCC)nc12 [sildenafil]
ERK phosphorylation [1]: did not cause dephosphorylate ERK
morphological appearance of cell death [2]: not observed
Expression of HES‐1, β‐catenin, and GLI1, and phosphorylation of Akt [3]: not changed
tumor growth (tumor volume) [4, 19]: did not suppress tumor growth significantly
Ki67 labeling index [4]: significantly reduced
Phosphorylated ERK levels in xenograft tumors [4]: ~30 % of control levels
ERK phosphorylation [5]: did not cause dephosphorylate ERK
caspase‐3 activity (apoptosis) [6]: not significantly induced

C‐type natriuretic peptide [CNP]
plasma concentration of CNP [7]: significantly increased
reduction in ERK phosphorylation [8]: no effect
effect on proliferation [9]: no effect
effect on proliferation [10]: no effect
CNP‐dependent cGMP production [11]: robust increases
CNP concentration at which cGMP levels almost reached a plateau ([12]; with IBMX): ~1 µmol/L
intracellular cGMP levels [12, 20]: increased the intracellular cGMP levels in a dose‐dependent manner
CNP concentration at which cGMP levels almost reached a plateau ([13]; with IBMX): ~1 µmol/L
intracellular cGMP levels [13, 20]: increased the intracellular cGMP levels in a dose‐dependent manner
ERK phosphorylation [1]: dephosphorylation of ERK
phosphorylation of Raf‐1 and MEK [1, 21]: Dephosphorylation
cell proliferation [14]: significantly attenuated
morphological appearance of cell death [2]: not observed
Expression of HES‐1, β‐catenin, and GLI1, and phosphorylation of Akt [3]: not changed
body weight of mice during treatment (tolerability) ([4]; 4 weeks, CNP 2.5 μg/kg/min s.c., sildenafil 20 mg/kg i.p. every other day, relative to control group): did not induce weight loss
tumor growth (tumor volume) [4, 19]: did not suppress tumor growth significantly
Ki67 labeling index [4]: significantly reduced
Phosphorylated ERK levels in xenograft tumors [4]: ~30 % of control levels
cell proliferation [15]: significantly attenuated
reduction in ERK phosphorylation [16]: no effect
CNP‐dependent cGMP production [17]: robust increases
ERK phosphorylation [5]: dephosphorylation of ERK
phosphorylation of Raf‐1 and MEK [5, 21]: Dephosphorylation
caspase‐3 activity (apoptosis) [6]: not significantly induced
hypotension [18]: does not cause hypotension
